The text below walks through data of patent publication US12370263B2, “Cyclic dinucleotide derivative based antibody-drug conjugates” (DAIICHI SANKYO COMPANY, LIMITED, priority 2018, dated 2025).

The target in assay [1] is T1, HisAviTEV-hSTING (139-342) human wild-type protein (Homo sapiens, UniProt Q86WV6, H232R).
T1 construct: made in house; host or cells: E. coli Rosetta 2 (DE3), co-expressed with BirA (1-321)
The assay can be described thus: Protein thermal shift assay, STING C-terminal binding domain protein. The following applies: test compound final concentration 0.5 mM.

Assay [2] concerns the target T2, His-Avi-TEV-mSTING (138-341) mouse wild-type protein (Mus musculus, UniProt Q3TBT3).
T2 construct: made in house; host or cells: E. coli Rosetta 2 (DE3), co-expressed with BirA (1-321)
The assay is described as above. The following applies: test compound final concentration 0.5 mM.

The target of assay [3] is T3, HisAviTEV-hSTING (139-342) human AQ-mutated protein (Homo sapiens, UniProt Q86WV6, G230A/H232R/R293Q).
T3 construct: made in house; host or cells: E. coli Rosetta 2 (DE3), co-expressed with BirA (1-321)
The assay is described as above. The following applies: test compound final concentration 0.5 mM.

In assay [4] the target is T4, HisAviTEV-hSTING (139-342) human REF-mutated protein (Homo sapiens, UniProt Q86WV6).
T4 construct: made in house; host or cells: E. coli Rosetta 2 (DE3), co-expressed with BirA (1-321)
Described as above. The following applies: test compound final concentration 0.5 mM.

For a further assay, the system named is CT26.WT cells. The assay can be described thus: Anti-Tumor Test (1), intratumoral administration. Type of assay: in vivo, BALB/c mouse. To be noted: 10 μg intratumorally on Day 7, 9, and 11; CT26.WT in BALB/c mice; FIGS. 7a and 7b. How it is done: Mice: Before use for experiment, 5-week-old female BALB/c mice (BALB/cAnNCrlCrlj) (Charles River Laboratories Japan, Inc.) were habituated under SPF conditions for 4 days or longer.
Measurement, calculation formula: In all the studies, the major axis and minor axis of a tumor were measured twice or three times per week by using an electronic digital caliper (CD15-CX, Mitutoyo Corporation) to calculate tumor volume (mm^3). The calculation formula is as follows. Tumor volume (mm^3)=0.5×Major axis (mm)×[Minor axis (mm)]^2
Each test compound was diluted with physiological saline (Otsuka Pharmaceutical Factory, Inc.) for use. In administration of it, 50 μL was intratumorally administered.
Cells of the mouse colorectal cancer cell line CT26.WT (CRL2638) purchased from the American Type Culture Collection were used. CT26.WT cells were suspended in physiological saline, 1.0×10^6 cells were subcutaneously transplanted into the right axilla of each BALB/c mouse (Day 0), and 7 days thereafter the mice were randomly grouped. Each test compound in a dose of 10 μg was intratumorally administered on Day 7, 9, and 11, three times in total. A group with administration of physiological saline was set as a group with a vehicle. The number of mice in each group was five or six.

Another assay has as its target Human STING (Homo sapiens, UniProt Q86WV6, G230A/H232R/R293Q/R71H). The experiment in a line: Reporter gene assay, human STING agonist activity, THP1-Dual cells (HAQ-mutated), IRF pathway. To be noted: THP1-Dual cells IRF EC50, THP1-Dual cells (HAQ-mutated), 24 hours; 100% = maximum count with ML-RR-CDA·2Na+.
A further assay concerns CT26.WT-hHER2 cells. The experiment in a line: Anti-Tumor Test (6). To be noted: 1.2 μg (equivalent of the conjugate's CDN component) into the tail vein on Day 7, once; CT26.WT-hHER2 in BALB/c mice. It counts as in vivo, BALB/c mouse.

T3 sequence (Q86WV6 with tags, fused parts or gaps G230A/H232R/R293Q): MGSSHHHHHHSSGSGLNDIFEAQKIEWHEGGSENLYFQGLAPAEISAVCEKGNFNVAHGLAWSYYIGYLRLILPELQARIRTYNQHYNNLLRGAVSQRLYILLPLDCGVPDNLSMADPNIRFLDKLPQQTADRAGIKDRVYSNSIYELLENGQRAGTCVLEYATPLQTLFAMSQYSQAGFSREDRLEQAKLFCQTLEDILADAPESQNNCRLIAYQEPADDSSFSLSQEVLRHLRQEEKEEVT
T2 sequence (Q3TBT3 with tags, fused parts or gaps limits assumed): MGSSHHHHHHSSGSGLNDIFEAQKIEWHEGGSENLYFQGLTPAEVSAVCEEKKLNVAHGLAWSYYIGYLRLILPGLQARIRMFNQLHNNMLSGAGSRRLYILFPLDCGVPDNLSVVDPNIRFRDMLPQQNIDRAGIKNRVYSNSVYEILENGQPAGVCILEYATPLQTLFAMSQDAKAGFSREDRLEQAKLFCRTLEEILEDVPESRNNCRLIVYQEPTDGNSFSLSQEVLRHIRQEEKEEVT
T1 sequence (Q86WV6 with tags, fused parts or gaps H232R): as the sequence (Q86WV6 with tags, fused parts or gaps G230A/H232R/R293Q) above, with A131G, Q194R counted along it
T4 sequence (Q86WV6 with tags, fused parts or gaps, change not shown): as the sequence (Q86WV6 with tags, fused parts or gaps G230A/H232R/R293Q) above, with A131G, R133H, Q194R counted along it
Chain of Human STING (Q86WV6 whole entry R71H/G230A/H232R/R293Q): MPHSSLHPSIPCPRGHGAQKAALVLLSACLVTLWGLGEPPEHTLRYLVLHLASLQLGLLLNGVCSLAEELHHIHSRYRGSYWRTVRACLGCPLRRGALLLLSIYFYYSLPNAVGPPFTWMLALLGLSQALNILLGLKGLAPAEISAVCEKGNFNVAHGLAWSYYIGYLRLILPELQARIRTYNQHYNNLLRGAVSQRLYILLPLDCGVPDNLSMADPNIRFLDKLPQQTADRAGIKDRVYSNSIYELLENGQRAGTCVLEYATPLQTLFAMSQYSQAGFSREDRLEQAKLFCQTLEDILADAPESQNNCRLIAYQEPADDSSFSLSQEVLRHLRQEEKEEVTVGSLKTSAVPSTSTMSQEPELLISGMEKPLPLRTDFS
Description for CT26.WT-hHER2 cells: Each antibody-CDN conjugate was diluted with acetate buffer (10 mM Acetate Buffer, 5% Sorbitol, pH 5.5) (NACALAI TESQUE, INC.) for use. In administration of it, 200 μL was administered into the tail vein.
CT26.WT-hHER2 cells were suspended in physiological saline, 5.0×10^6 cells were subcutaneously transplanted into the right axilla of each BALB/c mouse (Day 0), and 7 days thereafter the mice were randomly grouped. Each specimen for administration was administered into the tail vein on Day 7, once in total. A group with administration of acetate buffer was set as a group with a vehicle. The number of mice in each group was five.
Description for Human STING: Human STING agonist activity was evaluated by using THP1-Dual™ cells (HAQ-mutated) (InvivoGen, CA, US), with which the activation of the pathway of interferon regulatory factor-3 (IRF3), which is present in the downstream of the STING pathway, can be confirmed.
Assay was performed as follows. First, a test compound diluted with PBS was aliquoted into a transparent 96-well plate (Corning Incorporated, NY, US) at 20 μL/well. Subsequently, reporter cells suspended in assay buffer (an RPMI1640 medium or DMEM medium containing 10% bovine serum albumin) were added at 180 μL/well (1×10^5 cells/well) to initiate stimulation. After the cells were cultured in an environment at 37° C. and 5% CO2 for 24 hours, the resultant was centrifuged to collect the supernatant. To a white 384-well plate, 6 μL of the supernatant collected was added, and 15 μL of QUANTI-Luc (InvivoGen) solution was added thereto. After the resultant was well mixed together, emission was measured by using a plate reader (PerkinElmer, Inc., MA, US).

On to `O=c1c2ncn([C@@H]3O[C@@H]4COP(=O)(S)O[C@H]5[C@@H](O)[C@H](n6cc7c8c(ncnc86)NCCC7)O[C@@H]5COP(=O)(S)O[C@@H]3[C@@H]4O)c2ncn1CCO` (single isomer, unassigned) [6a], for which the ΔTm at 500 µM stood at 10.6 °C in assay [1], 15.7 °C in assay [2], 14.8 °C in assay [3] and 5.7 °C in assay [4]. Also, the “tumor growth (tumor volume)” value in the assay with CT26.WT cells was “significantly suppressed”. Besides, at Human STING, the 50% effective concentration (EC50) was determined as 600 nM.
On to `NCCNc1nc(N)c2ncn([C@@H]3O[C@@H]4COP(=O)(S)O[C@H]5[C@@H](O)[C@H](n6cc7c8c(ncnc86)NCCC7)O[C@@H]5COP(=O)(S)O[C@@H]3[C@@H]4O)c2n1` (single isomer, unassigned) [8b], for which the “tumor growth (tumor volume)” value in the assay with CT26.WT-hHER2 cells is “not suppressed”; with CT26.WT cells, “significantly suppressed”. Also, at Human STING, it took 6600 nM to reach a half-maximal effect (EC50).
Regarding `Nc1nc(NCCO)nc2c1ncn2[C@@H]1O[C@@H]2COP(=O)(S)O[C@H]3[C@@H](O)[C@H](n4cc5c6c(ncnc64)NCCC5)O[C@@H]3COP(=O)(S)O[C@@H]1[C@@H]2O` (single isomer, unassigned) [9b], the “tumor growth (tumor volume)” value in the assay with CT26.WT cells is given as “significantly suppressed”. Besides, at Human STING, the concentration giving a half-maximal response (EC50) came to 2400 nM.
`NCCNc1nc(N)c2ncn([C@@H]3O[C@@H]4COP(=O)(S)O[C@H]5[C@@H](F)[C@H](n6cc7c8c(ncnc86)SCCC7)O[C@@H]5COP(=O)(S)O[C@@H]3[C@@H]4F)c2n1` (single isomer, unassigned) [51b]: the shift in melting temperature (ΔTm) at 500 µM came out at 9.9 °C in assay [1], 17 °C in assay [2], 11.6 °C in assay [3] and 4.3 °C in assay [4]. The 50% effective concentration (EC50) at Human STING was determined as 430 nM.
As to `O=c1c2ncn([C@@H]3O[C@@H]4COP(=O)(O)O[C@H]5[C@@H](F)[C@H](n6cc7c8c(ncnc86)NCCC7)O[C@@H]5COP(=O)(S)O[C@@H]3[C@@H]4O)c2ncn1CCO` (single isomer, unassigned) [52a], the ΔTm at 500 µM in assay [1] was determined as 10.9 °C; in assay [2], 14.3 °C; in assay [3] it was 13.5 °C; in assay [4], 5.6 °C. The EC50 on Human STING worked out at 310 nM.
In the case of `O=c1c2ncn([C@@H]3O[C@@H]4COP(=O)(S)O[C@H]5[C@@H](F)[C@H](n6cc7c8c(ncnc86)NCCC7)O[C@@H]5COP(=O)(O)O[C@@H]3[C@@H]4O)c2ncn1CCO` (stereo partly drawn) [53a, Disodium (5R,7R,8R,12aR,14R,15R,15aR,16R)-15-fluoro-16-hydroxy-7-[1-(2-hydroxyethyl)-6-oxo-1,6-dihydro-9H-purin-9-yl]-2,10-dioxo-2-sulfide-14-(6,7,8,9-tetrahydro-2H-2,3,5,6-tetraazabenzo[cd]azulen-2-yl)octahydro-2H,10H,12H-5,8-methano-2λ^5,10λ^5-furo[3,2-1][1,3,6,9,11,2,10]pentaoxadiphosphacyclotetradecin-10-olate], the thermal shift (ΔTm) at 500 µM is 9.6 °C in assay [1], 14.3 °C in assay [2], 11.6 °C in assay [3] and 5.4 °C in assay [4]. Further, the midpoint of the response on Human STING, the EC50, lay at 6000 nM.
In the same order, the values of `O=c1c2ncn([C@@H]3O[C@@H]4COP(=O)(O)O[C@H]5[C@@H](F)[C@H](n6cc7c8c(ncnc86)NCCC7)O[C@@H]5COP(=O)(O)O[C@@H]3[C@@H]4O)c2ncn1CCO` [compound 54, Disodium (5R,7R,8R,12aR,14R,15R,15aR,16R)-15-fluoro-16-hydroxy-7-[1-(2-hydroxyethyl)-6-oxo-1,6-dihydro-9H-purin-9-yl]-2,10-dioxo-14-(6,7,8,9-tetrahydro-2H-2,3,5,6-tetraazabenzo[cd]azulen-2-yl)octahydro-2H,10H,12H-5,8-methano-2λ^5,10λ^5-furo[3,2-1][1,3,6,9,11,2,10]pentaoxadiphosphacyclotetradecine-2,10-bis(olate)] are 8.3 °C, 12.1 °C, 9.8 °C, 3.4 °C and 4000 nM.
